Test results published in US12195482B1 (Arcus Biosciences, Inc., priority 2022, dated 2025).

How the values were obtained:
Axl = target: T1, Axl (Homo sapiens, UniProt P30530); test: Biochemical potency, HTRF KinEASE-TK kinase assay; parameters: purchased Invitrogen; conditions: 5 nM AXL, 700 μM ATP
T1 sequence (P30530 26-894): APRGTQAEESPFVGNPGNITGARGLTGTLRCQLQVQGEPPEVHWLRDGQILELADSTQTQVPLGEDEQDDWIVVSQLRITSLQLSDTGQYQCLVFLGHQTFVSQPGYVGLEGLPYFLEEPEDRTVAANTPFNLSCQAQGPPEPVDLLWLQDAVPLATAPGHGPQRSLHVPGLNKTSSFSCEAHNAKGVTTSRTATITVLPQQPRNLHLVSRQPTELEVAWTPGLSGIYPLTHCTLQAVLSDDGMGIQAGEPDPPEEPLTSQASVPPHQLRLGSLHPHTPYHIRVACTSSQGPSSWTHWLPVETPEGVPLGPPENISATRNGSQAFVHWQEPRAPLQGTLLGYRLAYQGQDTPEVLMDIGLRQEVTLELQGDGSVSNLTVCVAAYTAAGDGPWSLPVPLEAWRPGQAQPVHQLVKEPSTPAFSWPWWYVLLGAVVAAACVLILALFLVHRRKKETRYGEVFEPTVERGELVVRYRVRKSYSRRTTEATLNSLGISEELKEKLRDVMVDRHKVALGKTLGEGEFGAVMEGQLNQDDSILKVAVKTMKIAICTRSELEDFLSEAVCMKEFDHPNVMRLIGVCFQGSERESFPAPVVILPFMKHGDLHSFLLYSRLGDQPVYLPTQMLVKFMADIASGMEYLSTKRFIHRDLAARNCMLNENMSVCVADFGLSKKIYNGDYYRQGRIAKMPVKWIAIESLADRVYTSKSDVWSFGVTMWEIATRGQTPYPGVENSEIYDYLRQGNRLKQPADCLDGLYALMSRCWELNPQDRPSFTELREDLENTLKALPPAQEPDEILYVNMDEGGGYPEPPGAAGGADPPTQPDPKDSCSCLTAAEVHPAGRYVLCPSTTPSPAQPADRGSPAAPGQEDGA
Description: Measurement of Biochemical Compound Potency of Axl Inhibitors
Purified recombinant human AXL, TYRO3 and MER proteins were purchased from Invitrogen™. 10 nM AXL, 2 nM TYRO3 or MER were incubated with varying concentrations of compounds in 50 mM HEPES, pH 7.4, 10 mM MgCl2, 0.01% BSA, 1 mM DTT and 2% DMSO in a total volume of 20 μl in a 384-well microplate (Corning™ #3640) at RT for 1 h. The AXL, TYRO3 and MER enzymatic reaction was initiated by transferring 10 μl of enzyme and compound mixture into 10 μl of 1.6 μM TK Substrate-biotin (HTRF® KinEASE-TK kit, Cisbio) and 1400 μM ATP pre-incubated in 50 mM HEPES, pH 7.4, 10 mM MgCl2, 0.01% BSA, 1 mM DTT in a 384-well microplate (Corning™ #3640) at RT, giving the final reaction conditions: 5 nM AXL, 1 nM TYRO3 or MER, 800 nM TK Substrate-biotin and 700 μM ATP in 50 mM HEPES, pH 7.4, 10 mM MgCl2, 0.01% BSA, 1 mM DTT and 1% DMSO with varying concentrations of compounds. Following 2 h incubation at RT, the AXL, TYRO3 and MER enzymatic reaction was stopped by transfer of 10 μl of reaction into 10 μl of detection mix (400 nM Streptavidin-XL665, 200-fold dilution TK Antibody-Cryptate and detection buffer, HTRF® KinEASE-TK kit, Cisbio) in a white 384-well microplate (Perkin Elmer, OptiPlate 384). After 1 h incubation at RT, the plate was put into a plate reader (Evision) to read at 665/620 nm (acceptor/donor) for HTRF. The value of the DMSO blank (MIN inhibition=100% activity) was used as a negative control. The positive control was established by adding 5 μl of enzyme and DMSO mixture into 10 μl of detection mix followed by addition of 5 μl of TK Substrate-biotin and ATP mixture (MAX inhibition=0% activity). To calculate the percent activity, Equation 1 was used. Ratio665/620 is the value at a given compound concentration: […]

p-AXL = target: T2, p-AXL (Homo sapiens, UniProt P30530); test: Axl phosphorylation inhibition ELISA in HEK293T cells transfected with NanoLuc-tagged AXL; format: cell-based; conditions: 1 h compound incubation, media (OptiMEM)
T2 construct: expressed in transfected cells; host or cells: HEK293T
T2 sequence (P30530 26-894): T1 sequence (P30530 26-894)
Description: [formula] Measurement of Axl Phosphorylation Inhibition
The dose-response assays were performed in S-Bio PrimeSurface® 3D culture: Ultra-low Attachment Plates: 384 well, U bottom (#MS-9384UZ) containing 400 nL of 22 serial 2-fold compound dilutions using Bravo and Echo. ELISA assay was performed on Pierce™ streptavidin coated high capacity 384-well white plates (Thermofisher Cat #15505). The plates were coated overnight at 4° C. with 50 μl/well of biotinlyated phospho-tyrosine mouse mAb (Cell Signaling Technology, 9417s).
HEK293T cells were grown in DMEM containing 10% FBS, 1% Pen/Strep, 1% G-Max. A day before the assay, cells were transiently transfected with 6.8 μg of NanoLuc-tagged AXL plasmid DNA and 8 μg of carrier DNA using FuGENE® HD Transfection Reagent (Promega) according to manufacturer's instructions. On the day of the assay, transfected cells were harvested and resuspended in OptiMEM. 70,000 cells/well were added to the compounds containing assay plates. After a gentle mix and a short spin, the plates were incubated at 37° C. After 1 h, the cells were lysed followed by a brief centrifugation and 30 min of shaking at 300 rpm. Meanwhile, the antibody coated plates were brought to room temperature and then were washed ten times in PBS with 0.05% Tween 20 (ELISA-wash buffer). 50 μl/well of cell lysate was transferred to the ELISA plates and shaken for 2 hours. After washing again with the ELISA wash buffer, the samples were diluted with 25 μl of PBS. The captured NanoLuc tagged p-AXL was detected using Nano-Glo® Luciferase Assay System (Promega) and manufacturer's instruction. The luminescence signal was measured using Envision plate reader. IC50 values were determined by fitting the data to a standard 4-parameter logistic equation.

IC50 (Axl) | IC50 (p-AXL) | Structure (SMILES)
< 100 nM | < 100 nM | Cc1ccc(C)c(-c2ccc(-c3c[nH]c4ncc(-c5ccc6c(c5)CC[C@@H](N5C7COCC5C7)CC6)cc34)cc2C)n1 [Example 191, 6-[(7S)-2-{3-[4-(3,6-Dimethylpyridin-2-yl)-3-methylphenyl]-1H-pyrrolo[2,3-b]pyridin-5-yl}-6,7,8,9-tetrahydro-5H-benzo[7]annulen-7-yl]-3-oxa-6-azabicyclo[3.1.1]heptane]
< 100 nM | < 100 nM | Cc1cc(=O)n(C)nc1-c1ccc(-c2c[nH]c3ncc(-c4ccc5c(c4)CC[C@@H](N4C6COCC4C6)CC5)cc23)cc1 [Example 20, 2,5-Dimethyl-6-(4-{5-[(7S)-7-{3-oxa-6-azabicyclo[3.1.1]heptan-6-yl}-6,7,8,9-tetrahydro-5H-benzo[7]annulen-2-yl]-1H-pyrrolo[2,3-b]pyridin-3-yl}phenyl)-2,3-dihydropyridazin-3-one]
< 100 nM | 100 to 1000 nM | c1cc2c(c(-c3ccc(-c4n[nH]c5ncc(-c6ccc7c(c6)CC[C@@H](N6C8COCC6C8)CC7)cc45)cc3)n1)NCCO2 [Example 150, 6-[(7S)-2-[3-(4-{2H,3H,4H-Pyrido[4,3-b][1,4]oxazin-5-yl}phenyl)-1H-pyrazolo[3,4-b]pyridin-5-yl]-6,7,8,9-tetrahydro-5H-benzo[7]annulen-7-yl]-3-oxa-6-azabicyclo[3.1.1]heptane]
< 100 nM | < 100 nM | Cc1cccnc1-c1ccc(-c2c[nH]c3ncc(-c4ccc5c(c4)CC[C@@H](N4C6COCC4C6)CC5)cc23)c(F)c1 [Example 153, 6-[(7S)-2-{3-[2-Fluoro-4-(3-methylpyridin-2-yl)phenyl]-1H-pyrrolo[2,3-b]pyridin-5-yl}-6,7,8,9-tetrahydro-5H-benzo[7]annulen-7-yl]-3-oxa-6-azabicyclo[3.1.1]heptane]
< 100 nM | 100 to 1000 nM | Cc1ccc(C(C)(C)O)nc1-c1ccc(-c2n[nH]c3ncc(-c4ccc5c(c4)CC[C@@H](N4C6COCC4C6)CC5)cc23)cc1 [Example 192, 2-[5-Methyl-6-(4-{5-[(7S)-7-{3-oxa-6-azabicyclo[3.1.1]heptan-6-yl}-6,7,8,9-tetrahydro-5H-benzo[7]annulen-2-yl]-1H-pyrazolo[3,4-b]pyridin-3-yl}phenyl)pyridin-2-yl]propan-2-ol]
< 100 nM | < 100 nM | Cc1cccnc1-c1ncc(-c2c[nH]c3ncc(-c4ccc5c(c4)CC[C@@H](N4C6COCC4C6)CC5)cc23)cn1 [Example 38, 6-[(7S)-3-[3-[2-(3-Methylpyridin-2-yl)pyrimidin-5-yl]-1H-pyrrolo[2,3-b]pyridin-5-yl]-6,7,8,9-tetrahydro-5H-benzo[7]annulen-7-yl]-3-oxa-6-azabicyclo[3.1.1]heptane]
< 100 nM | < 100 nM | Cc1cccnc1-c1cccc(-c2c[nH]c3ncc(-c4ccc5c(c4)CC[C@@H](N4C6COCC4C6)CC5)cc23)c1 [Example 82, 6-[(7S)-2-{3-[3-(3-Methylpyridin-2-yl)phenyl]-1H-pyrrolo[2,3-b]pyridin-5-yl}-6,7,8,9-tetrahydro-5H-benzo[7]annulen-7-yl]-3-oxa-6-azabicyclo[3.1.1]heptane]
< 100 nM | < 100 nM | Cc1ccc(C)c(-c2ccc(-c3c[nH]c4ncc(-c5ccc6c(c5)CC[C@@H](N5C7COCC5C7)CC6)cc34)cc2)n1 [Example 137, 6-[(7S)-2-{3-[4-(3,6-Dimethylpyridin-2-yl)phenyl]-1H-pyrrolo[2,3-b]pyridin-5-yl}-6,7,8,9-tetrahydro-5H-benzo[7]annulen-7-yl]-3-oxa-6-azabicyclo[3.1.1]heptane]
< 100 nM | < 100 nM | Cc1cccnc1-c1cnc(-c2c[nH]c3ncc(-c4ccc5c(c4)CC[C@@H](N4C6COCC4C6)CC5)cc23)cn1 [Example 184, 6-[(7S)-2-{3-[5-(3-Methylpyridin-2-yl)pyrazin-2-yl]-1H-pyrrolo[2,3-b]pyridin-5-yl}-6,7,8,9-tetrahydro-5H-benzo[7]annulen-7-yl]-3-oxa-6-azabicyclo[3.1.1]heptane]
< 100 nM | 100 to 1000 nM | Cc1cnc(C)c(-c2ccc(-c3c[nH]c4ncc(-c5ccc6c(c5)CC[C@@H](N5C7COCC5C7)CC6)cc34)nc2)n1 [Example 69, 6-[(7S)-2-{3-[5-(3,6-Dimethylpyrazin-2-yl)pyridin-2-yl]-1H-pyrrolo[2,3-b]pyridin-5-yl}-6,7,8,9-tetrahydro-5H-benzo[7]annulen-7-yl]-3-oxa 6-azabicyclo[3.1.1]heptane]
< 100 nM | < 100 nM | Cc1ccc[n+]([O-])c1-c1ccc(-c2c[nH]c3ncc(-c4ccc5c(c4)CC[C@@H](N4C6COCC4C6)CC5)cc23)cc1 [Example 16, 3-Methyl-2-(4-{5-[(7S)-7-{3-oxa-6-azabicyclo[3.1.1]heptan-6-yl}-6,7,8,9-tetrahydro-5H-benzo[7]annulen-2-yl]-1H-pyrrolo[2,3-b]pyridin-3-yl}phenyl)pyridin-1-ium-1-olate]
< 100 nM | < 100 nM | Cc1ccc(C)c(-c2ccc(-c3c[nH]c4ncc(-c5ccc6c(c5)CC[C@@H](N5C7COC[C@H]5C7)CC6)cc34)c(F)c2)n1 [Example 144, (1R)-6-[(7S)-2-{3-[4-(3,6-Dimethylpyridin-2-yl)-2-fluorophenyl]-1H-pyrrolo[2,3-b]pyridin-5-yl}-6,7,8,9-tetrahydro-5H-benzo[7]annulen-7-yl]-3-oxa-6-azabicyclo[3.1.1]heptane]
< 100 nM | > 1000 nM | Cc1cccc(F)c1-c1ccc(-c2c[nH]c3ncc(-c4ccc5c(c4)CC[C@@H](N4C6COCC4C6)CC5)cc23)cc1 [Example 84, 6-[(7S)-2-(3-{2′-Fluoro-6′-methyl-[1,1′-biphenyl]-4-yl}-1H-pyrrolo[2,3-b]pyridin-5-yl)-6,7,8,9-tetrahydro-5H-benzo[7]annulen-7-yl]-3-oxa-6-azabicyclo[3.1.1]heptane]
